# What was measured:
# [1] = system: L1210, CEM and HeLa cells; settings: for cytostatic activity (in words): tumour cell lines
# [2] = in vitro
# [3] = in vitro; settings: mouse (L1210), human (CEM, HeLa)
SMILES,cytostatic activity (in words) [1],CC50 [2],times less potent than EAdo ([1]; cytostatic potency relative to EAdo in the three cell lines),IC50 [3]
C#C[C@@]1(O)[C@@H](CO)O[C@@H](n2cnc3c(N)nc(Cl)nc32)[C@@H]1O [Compound 7],did not show any cytostatic activity,–,–,–
C#C[C@@]1(O)[C@@H](CO)O[C@@H](n2cnc3c(NCc4cccc(Cl)c4)nc(Cl)nc32)[C@@H]1O [Compound 10],–,34.5 µM,at least 30,22 to 50 µM
"C#C[C@@]1(O)[C@@H](CO)O[C@@H](n2cnc3c(N)ncnc32)[C@@H]1O [Compound 1, 3′-C-ethynyladenosine, reference compound]",potent cytostatic activity,–,–,–

# — PMC7126545 (Bioorganic & Medicinal Chemistry Letters, 2016)
